Laboratory results from BindingDB's records for doi:10.7270/Q2FT8P6X (n/a, 1994).

Target: Leukotriene B4 receptor (Cavia porcellus)
Assay: Negative logarithm of affinity for leukotriene B4 (LTB4) receptor on guinea pig lung membranes

SMILES	Ki
CCc1cc(-c2ccc(N(C)C)cc2)c(O)cc1OCCCCCC(C)(C)c1nn[nH]n1	63 nM
CCc1cc(-c2cccc(C(F)(F)F)c2)c(O)cc1OCCCCCC(C)(C)c1nn[nH]n1	66 nM
